Experimental data from patent US20100292471A1, “PEPTIDE NUCLEIC ACID OLIGOMERS […] BASES,PREPARATION METHODS THEREOF, AND KITS, DEVICES AND METHODS FOR THE ANALYSIS, DETECTION OR MODULATION OF NUCLEIC ACIDS USING THE SAME” (PANAGENE INC., priority 2006, published 2010).

Assays:
[1] = tested on: PCR product of HBV mutant type; experiment: PNA microarray hybridization with biotinylated PCR product, streptavidine-Cy5 fluorescence (perfect match); assay type: binding, hepatitis B virus (HBV)
Protocol: The purified oligomer was diluted at a concentration of […], and spotted on a slide glass functionalized with epoxy group (Panagene, Korea) in pin mode, and the slide was allowed to stand for 4 hours at room temperature while maintaining 75% humidity. Then, it was immersed into DMF, and washed by ultrasonication for 15 minutes. It was immersed into DMF containing 0.1 M succinic anhydride and reacted at 40° C. for 2 hours. And the reaction mixture was washed by ultrasonication with DMF and deionized water, sequentially, for 15 minutes per time. Then, the slide was treated with 100 mM Tris-HCl buffer containing 0.1 M ethanolamine for 2 hours to inactivate the residual epoxy groups on the surface of the slide glass. The slide glass was washed by ultrasonication with deionized water, twice for 15 minutes per time, treated with boiling water for 5 minutes, washed with deionized water for 5 minutes, and dried. Then, a PNA microarray was ready for hybridization after attaching a silicon rubber sealing mat having holes, which can contain 100 μl of hybridization solution, to the slide glass.
To a hybridization solution of 100 μl was added 5 μl of the PCR product of HBV mutant type having biotin attached thereto, and streptavidine-Cy5 was added thereto to cause fluorescent reaction. […] The PNA microarray was scanned by a fluorescence scanner. […]

[2] = tested on: PCR product of HBV wild type; experiment: PNA microarray hybridization with biotinylated PCR product, streptavidine-Cy5 fluorescence (single mismatch); assay type: binding, hepatitis B virus (HBV); settings: hybridization at 40° C. for 2 hours, fluorescence scanner, SEQ ID Nos. 2 to 4 compared to SEQ ID No. 1

Q: “k(k)k-OO-GAGCCATGAGAAA (all peptide nucleic acid (PNA); N-terminal lysines and OO linker attached) [SEQ ID No. 1, PNA oligomer, 13 mer consisting of natural bases to detect mutation]” was tested. Which perfect match signal ([1]; PCR product of HBV mutant type, hybridization at 40° C. for 2 hours, fluorescence scanner, FIGS. 2 and 3) did it give?
A: The perfect match signal was “intensive perfect match signal”.

Q: And the “discriminability of HBV mutant type against wild type” value ([1]; perfect match signal for HBV mutant type versus single mismatch signal for HBV wild type)?
A: Its value is “cannot discriminate HBV mutant type against wild type”.

Q: What about the single mismatch signal [2] of the same substance?
A: Its single mismatch signal is “intensive single mismatch signal”.
